Test results from ChEMBL document CHEMBL1212763, “Pharmacokinetics and safety of S/GSK1349572, a next-generation HIV integrase inhibitor, in healthy volunteers” (Antimicrob Agents Chemother, 2010).

Key:
[1] = AUC (0-t) in healthy human at 10 mg administered as single dose suspension; assay type: ADME, organism-based; conditions: plasma
[2] = Drug level at 24 hrs in healthy human at 100 mg administered as single dose suspension; assay type: ADME, organism-based; conditions: in vivo, read-out: Drug uptake
[3] = Drug level at 24 hrs in healthy human at 10 mg administered as single dose suspension; assay type: ADME, organism-based; conditions: in vivo, read-out: Drug uptake
Homo sapiens [4] = assay: Toxicity in healthy human assessed as incidence of drug related incidence of somnolence at 10 mg administered as single dose suspension; assay type: organism-based; conditions: in vivo
[5] = Cmax in healthy human at 25 mg administered as single dose suspension; assay type: ADME, organism-based; set-up: dose 25 mg; conditions: in vivo
[6] = AUC (0-t) in healthy human at 50 mg administered as single dose suspension; assay type: ADME, organism-based; conditions: plasma
Homo sapiens [7] = assay: Toxicity in healthy human assessed as incidence of drug related incidence of somnolence at 25 mg administered as single dose suspension; assay type: organism-based; conditions: in vivo
[8] = AUC (0-tau) in healthy human at 10 mg, qd for 10 days administered as suspension measured after last dose; assay type: ADME, organism-based; conditions: plasma
[9] = AUC (0-infinity) in healthy human at 5 mg administered as single dose suspension; assay type: ADME, organism-based; set-up: dose 5 mg, time infinity; conditions: plasma
[10] = AUC (0-infinity) in healthy human at 100 mg administered as single dose suspension; assay type: ADME, organism-based; set-up: dose 100 mg, time infinity; conditions: plasma
[11] = AUC (0-tau) in healthy human at 25 mg, qd for 10 days administered as suspension measured after last dose; assay type: ADME, organism-based; conditions: plasma
[12] = AUC (0-tau) in healthy human at 50 mg, qd for 10 days administered as suspension measured after last dose; assay type: ADME, organism-based; conditions: plasma
[13] = Tmax in healthy human at 25 mg administered as single dose suspension; assay type: ADME, organism-based; conditions: in vivo
[14] = Drug level at 24 hrs in healthy human at 50 mg administered as single dose suspension; assay type: ADME, organism-based; conditions: in vivo, read-out: Drug uptake
[15] = AUC (0-infinity) in healthy human at 50 mg administered as single dose suspension; assay type: ADME, organism-based; set-up: dose 50 mg, time infinity; conditions: plasma
Homo sapiens [16] = assay: Toxicity in healthy human assessed as incidence of drug related incidence of head ache at 10 mg administered as single dose suspension; assay type: organism-based; conditions: in vivo
Homo sapiens [17] = assay: Toxicity in healthy human assessed as incidence of drug related incidence of somnolence at 100 mg administered as single dose suspension; assay type: organism-based; conditions: in vivo
Homo sapiens [18] = assay: Toxicity in healthy human assessed as incidence of drug related incidence of pharyngolaryngeal pain at 25 mg, qd for 10 days administered as suspension measured after last dose coadministered with 3 mg CYP3A4 probe midazolam; assay type: organism-based; conditions: in vivo, 240 h
Homo sapiens [19] = assay: Toxicity in healthy human assessed as incidence of drug related incidence of somnolence at 50 mg administered as single dose suspension; assay type: organism-based; conditions: in vivo
Homo sapiens [20] = assay: Toxicity in healthy human assessed as incidence of adverse events at 2 to 100 mg administered as single dose suspension; assay type: organism-based; conditions: in vivo
[21] = AUC (0-infinity) in healthy human at 25 mg administered as single dose suspension; assay type: ADME, organism-based; set-up: dose 25 mg, time infinity; conditions: plasma
[22] = Half life in healthy human at 2 mg administered as single dose suspension; assay type: ADME, organism-based; conditions: in vivo
[23] = Tmax in healthy human at 10 mg, qd for 10 days administered as suspension measured after last dose; assay type: ADME, organism-based; conditions: in vivo
Homo sapiens [24] = assay: Toxicity in healthy human assessed as incidence of drug related incidence of headache at 50 mg, qd for 10 days administered as suspension measured after last dose; assay type: organism-based; conditions: in vivo, 240 h
Homo sapiens [25] = assay: Toxicity in healthy human assessed as incidence of adverse events at 10 to 50 mg, qd for 10 days administered as suspension measured after last dose; assay type: organism-based; conditions: in vivo, 240 h
[26] = Tmax in healthy human at 100 mg administered as single dose suspension; assay type: ADME, organism-based; conditions: in vivo
[27] = Drug level in healthy human at 50 mg, qd for 10 days administered as suspension measured after last dose; assay type: ADME, organism-based; conditions: in vivo, read-out: Drug uptake
Homo sapiens [28] = assay: Toxicity in healthy human assessed as incidence of drug related incidence of somnolence at 2 mg administered as single dose suspension; assay type: organism-based; conditions: in vivo
Homo sapiens [29] = assay: Toxicity in healthy human assessed as incidence of drug related incidence of pharyngolaryngeal pain at 50 mg, qd for 10 days administered as suspension measured after last dose; assay type: organism-based; conditions: in vivo, 240 h
Homo sapiens [30] = assay: Toxicity in healthy human assessed as incidence of drug related incidence of pruritis at 25 mg, qd for 10 days administered as suspension measured after last dose; assay type: organism-based; conditions: in vivo, 240 h
[31] = AUC (0-infinity) in healthy human at 2 mg administered as single dose suspension; assay type: ADME, organism-based; set-up: dose 2 mg, time infinity; conditions: plasma
[32] = Tmax in healthy human at 10 mg administered as single dose suspension; assay type: ADME, organism-based; conditions: in vivo
Homo sapiens [33] = assay: Toxicity in healthy human assessed as incidence of drug related incidence of pruritis at 10 mg, qd for 10 days administered as suspension measured after last dose; assay type: organism-based; conditions: in vivo, 240 h
[34] = Cmax in healthy human at 5 mg administered as single dose suspension; assay type: ADME, organism-based; set-up: dose 5 mg; conditions: in vivo
[35] = Cmax in healthy human at 10 mg administered as single dose suspension; assay type: ADME, organism-based; set-up: dose 10 mg; conditions: in vivo
[36] = Tmax in healthy human at 50 mg, qd for 10 days administered as suspension measured after last dose; assay type: ADME, organism-based; conditions: in vivo
[37] = Apparent oral clearance in healthy human at 10 mg administered as single dose suspension; assay type: ADME, organism-based; conditions: in vivo
[38] = Drug level at 24 hrs in healthy human at 25 mg administered as single dose suspension; assay type: ADME, organism-based; conditions: in vivo, read-out: Drug uptake

C[C@@H]1CCO[C@H]2Cn3cc(C(=O)NCc4ccc(F)cc4F)c(=O)c([O-])c3C(=O)N12.[Na+] [DOLUTEGRAVIR SODIUM]
AUC(0-t) [1]: 14300 ng·h/mL | concentration at 24 h [2]: 1800 ng/mL | concentration at 24 h [3]: 196 ng/mL | Activity (Homo sapiens [4]): 0% | Cmax [5]: 2760 ng/mL | AUC(0-t) [6]: 70800 ng·h/mL | Activity (Homo sapiens [7]): 0% | AUC tau at 240 h [8]: 16700 ng·h/mL | AUC(0-inf) [9]: 8870 ng·h/mL | AUC(0-inf) [10]: 136000 ng·h/mL | AUC tau at 240 h [11]: 38400 ng·h/mL | AUC tau at 240 h [12]: 76800 ng·h/mL | Tmax [13]: 45 min | concentration at 24 h [14]: 1060 ng/mL | AUC(0-inf) [15]: 73200 ng·h/mL | Activity (Homo sapiens [16]): 13% | Activity (Homo sapiens [17]): 0% | Activity (Homo sapiens [18]): 0% | Activity (Homo sapiens [19]): 33% | Activity (Homo sapiens [20]): Non-toxic | AUC(0-inf) [21]: 35100 ng·h/mL | half-life [22]: 762 min | Tmax [23]: 30 min | Activity (Homo sapiens [24]): 22% | Activity (Homo sapiens [25]): Non-toxic | Tmax [26]: 60 min | concentration at 240 h [27]: 1640 ng/mL | Activity (Homo sapiens [28]): 0% | Activity (Homo sapiens [29]): 11% | Activity (Homo sapiens [30]): 0% | AUC(0-inf) [31]: 2780 ng·h/mL | Tmax [32]: 37.8 min | Activity (Homo sapiens [33]): 0% | Cmax [34]: 661 ng/mL | Cmax [35]: 1230 ng/mL | Tmax [36]: 60 min | CL/F [37]: 11.5 mL/min | concentration at 24 h [38]: 469 ng/mL
